Patent US8877741B2, “Pyrrolidine derivatives, pharmaceutical compositions and uses thereof” (Boehringer Ingelheim International GmbH, priority 2013, dated 2014)

Molecular target: human ACC2 (Homo sapiens (Human), UniProt O00763)
Assay: ACC2 assay, spectrophotometric 384 well assay (NADH-linked kinetic method)
Assay type: biochemical
Settings: human ACC2 construct lacking the 128 N-terminal amino acids; coupled lactate dehydrogenase/pyruvate kinase reaction, 340 nm, 25° C.
Method: Spectrophotometric 384 Well Assay
Malonyl CoA formation by acetyl CoA carboxylases is stoichometrically linked to the consumption of ATP. ACC2 activity is measured in a NADH-linked kinetic method measuring ADP generated during the ACC reaction using a coupled lactate dehydrogenase/pyruvate kinase reaction.
For biological testing, a human ACC2 construct which lacks the 128 amino acids at the N-terminus for increased solubility (nt 385-6966 in Genbank entry AJ575592) is cloned. The protein is then expressed in insect cells using a baculoviral expression system. Protein purification is performed by anion exchange.
All compounds are dissolved in dimethyl sulfoxide (DMSO) to a concentration of 10 mM.
The enzymatic reaction is then started by addition of a mixture of NADH, acetyl Coenzyme A (both 2000 μM f.c.) and ATP (500 uM f.c.). The decrease of the optical density (slope S) is then determined at 25° C. at a wavelength of 340 nm over 15 minutes in a spectrophotometric reader.
Each assay microtiter plate contains wells with vehicle instead of compound as controls for the non-inhibited enzyme (100% CTL; ‘HIGH’) and wells without acetyl-CoA as controls for non-specific NADH degradation (0% CTL; ‘LOW’).
The slope S is used for calculation of % CTL=(S(compound)−S(‘LOW’))/(S(‘HIGH’)−S(‘LOW’))*100.
For IC50 value determination, the sample slope in the presence of the test compound after subtraction of the low controls (S(compound)−S(‘LOW’)) are used.
An IC50 value is derived from the compound slopes at different dosages after subtraction of the low controls (S(compound)−S(‘LOW’)) by non-linear regression curve fitting (equation y=(A+((B−A)/(1+((C/x)^D))))).

Chain of human ACC2 (O00763 129-2458): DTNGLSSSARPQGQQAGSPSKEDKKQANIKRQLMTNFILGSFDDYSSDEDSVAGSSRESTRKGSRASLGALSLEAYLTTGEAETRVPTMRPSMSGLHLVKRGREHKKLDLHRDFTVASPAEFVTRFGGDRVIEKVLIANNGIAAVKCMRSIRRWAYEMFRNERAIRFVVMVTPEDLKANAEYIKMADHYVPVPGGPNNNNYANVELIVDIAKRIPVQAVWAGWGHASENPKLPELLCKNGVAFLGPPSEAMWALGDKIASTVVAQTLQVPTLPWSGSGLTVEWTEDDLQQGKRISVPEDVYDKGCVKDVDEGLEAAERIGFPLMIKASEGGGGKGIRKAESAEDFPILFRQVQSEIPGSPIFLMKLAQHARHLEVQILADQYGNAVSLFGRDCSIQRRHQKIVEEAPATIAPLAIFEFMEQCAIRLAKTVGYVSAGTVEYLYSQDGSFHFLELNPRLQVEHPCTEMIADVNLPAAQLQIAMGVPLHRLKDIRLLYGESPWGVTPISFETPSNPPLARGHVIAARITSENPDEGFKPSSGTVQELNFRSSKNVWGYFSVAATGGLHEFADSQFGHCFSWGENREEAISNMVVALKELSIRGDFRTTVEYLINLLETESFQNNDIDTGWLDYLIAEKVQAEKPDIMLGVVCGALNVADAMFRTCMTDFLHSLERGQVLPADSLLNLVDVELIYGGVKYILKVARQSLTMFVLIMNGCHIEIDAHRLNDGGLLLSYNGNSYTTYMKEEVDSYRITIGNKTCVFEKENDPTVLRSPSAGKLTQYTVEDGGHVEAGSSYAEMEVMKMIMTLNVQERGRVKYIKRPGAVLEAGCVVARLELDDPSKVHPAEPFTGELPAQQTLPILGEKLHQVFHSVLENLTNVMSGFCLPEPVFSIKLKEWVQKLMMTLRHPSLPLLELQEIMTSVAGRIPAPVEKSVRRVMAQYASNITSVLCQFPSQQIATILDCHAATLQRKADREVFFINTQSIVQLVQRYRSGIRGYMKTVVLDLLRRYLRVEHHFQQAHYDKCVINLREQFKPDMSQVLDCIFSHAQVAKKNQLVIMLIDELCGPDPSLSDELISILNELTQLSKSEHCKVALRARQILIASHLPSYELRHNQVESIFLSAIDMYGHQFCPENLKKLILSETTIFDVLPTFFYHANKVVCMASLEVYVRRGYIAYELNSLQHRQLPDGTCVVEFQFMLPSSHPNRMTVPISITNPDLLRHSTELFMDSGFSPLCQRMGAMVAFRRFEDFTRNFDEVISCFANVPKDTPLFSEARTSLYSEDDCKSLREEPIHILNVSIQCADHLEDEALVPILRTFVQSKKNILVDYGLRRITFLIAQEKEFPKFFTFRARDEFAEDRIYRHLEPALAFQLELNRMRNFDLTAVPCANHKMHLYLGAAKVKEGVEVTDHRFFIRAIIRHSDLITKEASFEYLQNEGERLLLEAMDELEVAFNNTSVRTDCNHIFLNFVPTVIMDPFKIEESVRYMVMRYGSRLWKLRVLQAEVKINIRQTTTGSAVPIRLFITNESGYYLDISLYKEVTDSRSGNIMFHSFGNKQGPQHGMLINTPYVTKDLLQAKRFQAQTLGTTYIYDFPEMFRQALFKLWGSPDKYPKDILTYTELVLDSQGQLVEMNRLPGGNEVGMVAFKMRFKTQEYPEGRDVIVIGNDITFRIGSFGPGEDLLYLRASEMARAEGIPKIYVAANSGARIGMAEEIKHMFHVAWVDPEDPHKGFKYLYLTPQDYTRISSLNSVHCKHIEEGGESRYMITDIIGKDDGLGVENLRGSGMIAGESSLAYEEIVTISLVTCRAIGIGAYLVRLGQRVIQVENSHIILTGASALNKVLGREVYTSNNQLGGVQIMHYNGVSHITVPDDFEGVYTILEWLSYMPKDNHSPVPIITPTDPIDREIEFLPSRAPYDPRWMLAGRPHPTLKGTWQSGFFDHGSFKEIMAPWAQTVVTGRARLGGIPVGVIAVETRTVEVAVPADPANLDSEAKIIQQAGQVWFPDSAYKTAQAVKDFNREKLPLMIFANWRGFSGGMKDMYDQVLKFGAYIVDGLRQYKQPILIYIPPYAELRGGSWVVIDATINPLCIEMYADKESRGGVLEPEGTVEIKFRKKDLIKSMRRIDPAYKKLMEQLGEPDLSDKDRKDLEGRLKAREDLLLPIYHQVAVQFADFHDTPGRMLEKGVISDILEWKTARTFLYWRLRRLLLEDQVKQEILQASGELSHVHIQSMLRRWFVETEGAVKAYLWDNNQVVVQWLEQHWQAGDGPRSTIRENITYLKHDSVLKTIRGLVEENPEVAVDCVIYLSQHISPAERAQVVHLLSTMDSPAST

Row | Compound | IC50
1 | C[C@H](NC(=O)N(C)C)c1ccc(OC2CCN(c3ccc(OCC4CC4(F)F)cn3)C2)cc1 (stereo partly drawn) [Example 1.54] | 140 nM
2 | CC(=O)N[C@@H](C)c1ccc(O[C@@H]2CCN(c3cc(C(F)(F)F)ccn3)C2)cc1 [Example 8.7] | 910 nM
3 | C[C@H](NC(=O)c1cnn(C)c1Cl)c1ccc(OC2CCN(c3ccnc(OCC(F)F)c3)C2)cc1 (stereo partly drawn) [Example 2.114] | 611 nM
4 | CC(=O)N[C@@H](C)c1ccc(O[C@@H]2CCN(c3ccnc(NC4CCCC4)c3F)C2)cc1 [Example 1.113] | 163 nM
5 | CC(=O)N[C@@H](C)c1ccc(OC2CCN(c3ncc(OC4CCC4)cc3F)C2)cc1 (stereo partly drawn) [Example 1.20] | 65 nM
6 | CC(=O)N[C@@H](C)c1ccc(O[C@@H]2CCN(c3ccnc(C(=O)Nc4ccc(Cl)cc4)c3)C2)cc1 [Example 8.11] | 1100 nM
7 | COCC(C)Oc1cc(N2CC[C@@H](Oc3ccc([C@H](C)NC(C)=O)cc3)C2)ccn1 (stereo partly drawn) [Example 9.3] | 480 nM
8 | CCC(CC)Oc1cc(N2CC[C@@H](Oc3ccc([C@H](C)NC(C)=O)cc3)C2)ccn1 [Example 9.20] | 70 nM
9 | C[C@H](NC(=O)c1cnc(N)o1)c1ccc(OC2CCN(c3ccc(OCC4CC4(F)F)cn3)C2)cc1 (stereo partly drawn) [Example 2.57] | 255 nM
10 | CC(=O)N[C@@H](C)c1ccc(O[C@@H]2CCN(c3ccnc(OCC4(C)CC4)c3)C2)cc1 [Example 9.16] | 35 nM
11 | C[C@H](NC(=O)CO)c1ccc(OC2CCN(c3ccnc(OCC(F)F)c3)C2)cc1 (stereo partly drawn) [Example 2.115] | 869 nM
12 | CC(=O)N[C@@H](C)c1ccc(O[C@@H]2CCN(c3cccc(N4CCC5(CC5)C4)n3)C2)cc1 [Example 10.32] | 245 nM
13 | C[C@H](NC(=O)Nc1ccon1)c1ccc(O[C@@H]2CCN(c3ccc(OCC4CC4(F)F)cn3)C2)cc1 (stereo partly drawn) [Example 3.1, 1-((1S)-1-(4-((3R)-1-(5-((2,2-Difluorocyclopropyl)methoxy)pyridin-2-yl)pyrrolidin-3-yloxy)phenyl)ethyl)-3-(isoxazol-3-yl)urea] | 81 nM
14 | C[C@H](NC(=O)c1cnc(N)o1)c1ccc(OC2CCN(c3ccnc(OCC4CC4)c3)C2)cc1 (stereo partly drawn) [Example 2.74] | 359 nM
15 | CCC(=O)Nc1nc(C)c(C(=O)N[C@@H](C)c2ccc(O[C@@H]3CCN(c4ccnc(NCC5CC5)c4F)C3)cc2)s1 [Example 1.142] | 67 nM
16 | CC(=O)N[C@@H](C)c1ccc(O[C@@H]2CCN(c3ccnc(OC4CCCC4)c3)C2)cc1 [Example 9.28] | 40 nM
17 | C[C@H](NC(=O)N(C)C)c1ccc(OC2CCN(c3ccnc(N4CCC(F)(F)C4)c3F)C2)cc1 (stereo partly drawn) [Example 3.22] | 50 nM
18 | CCC(=O)N[C@@H](C)c1ccc(OC2CCN(c3ccnc(OCC4CC4)c3)C2)cc1 (stereo partly drawn) [Example 2.66] | 50 nM
19 | CC(=O)N[C@@H](C)c1ccc(OC2CCN(c3ncc(OC4CC4)cc3F)C2)cc1 (stereo partly drawn) [Example 1.67] | 463 nM
20 | CC(=O)N[C@@H](C)c1ccc(O[C@@H]2CCN(c3ccc(Cl)c(C(F)(F)F)n3)C2)cc1 [Example 8.8] | 265 nM
21 | CC(=O)Nc1nc(C)c(C(=O)N[C@@H](C)c2ccc(OC3CCN(c4ccnc(N5CCC(F)(F)C5)c4F)C3)cc2)s1 (stereo partly drawn) [Example 2.123] | 58 nM

Row | Compound | IC50
22 | C[C@H](NC(=O)N1CCOCC1)c1ccc(OC2CCN(c3ccnc(N4CCC(F)(F)C4)c3F)C2)cc1 (stereo partly drawn) [Example 3.23] | 205 nM
23 | COC(=O)N[C@@H](C)c1ccc(OC2CCN(c3ccnc(OCC4CC4(F)F)c3F)C2)cc1 (stereo partly drawn) [Example 4.6] | 68 nM
24 | C[C@H](NC(=O)c1cnco1)c1ccc(OC2CCN(c3ccnc(OCC4CC4)c3)C2)cc1 (stereo partly drawn) [Example 2.67] | 46 nM
25 | C[C@H](NC(=O)CC#N)c1ccc(OC2CCN(c3ccnc(OCC(F)F)c3)C2)cc1 (stereo partly drawn) [Example 2.116] | 362 nM
26 | C[C@H](NC(=O)C(C)(C)F)c1ccc(OC2CCN(c3ccnc(OCC(F)F)c3)C2)cc1 (stereo partly drawn) [Example 2.109] | 453 nM
27 | CCCOc1ccc(N2CCC(Oc3ccc([C@H](C)NC(C)=O)cc3)C2)c(C)n1 (stereo partly drawn) [Example 1.37] | 360 nM
28 | C[C@H](NC(=O)c1cnn(C)c1N)c1ccc(OC2CCN(c3ccnc(OCC(F)F)c3)C2)cc1 (stereo partly drawn) [Example 2.112] | 298 nM
29 | CCCNc1nccc(N2CCC(Oc3ccc([C@H](C)NC(=O)N4CCOCC4)cc3)C2)c1F (stereo partly drawn) [Example 5.8] | 141 nM
30 | CCCOc1cnc(N2CCC(Oc3ccc([C@H](C)NC(C)=O)cc3)C2)c(Cl)c1 (stereo partly drawn) [Example 1.71] | 88 nM
31 | COCCOc1cc(N2CC[C@@H](Oc3ccc([C@H](C)NC(C)=O)cc3)C2)ccn1 [Example 9.18] | 482 nM
32 | CC(=O)N[C@@H](C)c1ccc(O[C@@H]2CCN(c3cc(NCC4CC4)ncc3F)C2)cc1 [Example 10.26] | 755 nM
33 | CC(=O)N[C@@H](C)c1ccc(O[C@@H]2CCN(c3ccnc(OCC(F)F)c3F)C2)cc1 [Example 9.52] | 61 nM
34 | CCCN(C)c1nccc(N2CC[C@@H](Oc3ccc([C@H](C)NC(C)=O)cc3)C2)c1OC [Example 1.129] | 210 nM
35 | Cc1cncc(C(=O)N[C@@H](C)c2ccc(OC3CCN(c4cccc(C(F)(F)F)n4)C3)cc2)c1 (stereo partly drawn) [Example 2.50] | 895 nM
36 | CCOc1ccc(N2CC[C@@H](Oc3ccc([C@H](C)NC(C)=O)cc3)C2)c(OC)n1 [Example 1.128] | 360 nM
37 | CC(=O)N[C@@H](C)c1ccc(O[C@@H]2CCN(c3ccc(OCC(F)F)cn3)C2)cc1 [Example 11.1, N—((S)-1-(4-((R)-1-(5-(2,2-Difluoroethoxy)pyridin-2-yl)pyrrolidin-3-yloxy)phenyl)ethyl)acetamide] | 510 nM
38 | CC(=O)N[C@@H](C)c1ccc(O[C@@H]2CCN(c3ccnc(O[C@@H]4CCOC4)c3)C2)cc1 [Example 9.10] | 184 nM
39 | CC(=O)N[C@@H](C)c1ccc(O[C@@H]2CCN(c3cc(Cl)ncc3C)C2)cc1 [Example 8.2] | 565 nM
40 | CC(=O)N[C@@H](C)c1ccc(O[C@@H]2CCN(c3ccnc(O[C@H]4CCOC4)c3)C2)cc1 [Example 9.25] | 572 nM
41 | CC(=O)N[C@@H](C)c1ccc(O[C@@H]2CCN(c3cc(N4CCCC4)ncc3F)C2)cc1 [Example 10.20] | 167 nM
42 | Cc1[nH]ncc1C(=O)N[C@@H](C)c1ccc(OC2CCN(c3ccc(OCC4CC4(F)F)cn3)C2)cc1 (stereo partly drawn) [Example 2.118] | 169 nM

Row | Compound | IC50
43 | C[C@H](NC(=O)c1ccon1)c1ccc(OC2CCN(c3ccnc(OCC(F)F)c3)C2)cc1 (stereo partly drawn) [Example 2.110] | 263 nM
44 | CNC(=O)N[C@@H](C)c1ccc(OC2CCN(c3ccc(OCC4CC4(F)F)cn3)C2)cc1 (stereo partly drawn) [Example 3.20] | 92 nM
45 | CC(=O)N[C@@H](C)c1ccc(OC2CCN(c3ccc(OC4CCC4)cn3)C2)cc1 (stereo partly drawn) [Example 1.26] | 114 nM
46 | C[C@H](NC(=O)C1CC1)c1ccc(O[C@@H]2CCN(c3ccnc(OCC4CC4(F)F)c3)C2)cc1 (stereo partly drawn) [Example 9.40] | 326 nM
47 | CCOc1nccc(N2CC[C@@H](Oc3ccc([C@H](C)NC(C)=O)cc3)C2)c1OC [Example 1.95] | 82 nM
48 | CC(=O)N[C@@H](C)c1ccc(O[C@@H]2CCN(c3ccnc(OCCc4ccccc4)c3)C2)cc1 [Example 9.12] | 534 nM
49 | C[C@H](NC(=O)c1cnco1)c1ccc(OC2CCN(c3ccc(OCC4CC4(F)F)cn3)C2)cc1 (stereo partly drawn) [Example 2.121] | 43 nM
50 | Cc1cnc(OCC2CC2)cc1N1CCC(Oc2ccc([C@H](C)NC(=O)N(C)C)cc2)C1 (stereo partly drawn) [Example 1.56] | 585 nM
51 | CC(=O)N[C@@H](C)c1ccc(O[C@@H]2CCN(c3nccc(N4CCCC4)c3F)C2)cc1 [Example 1.99] | 201 nM
52 | C[C@H](NC(=O)C1(C)CC1)c1ccc(OC2CCN(c3ccnc(N4CCC(F)(F)C4)c3F)C2)cc1 (stereo partly drawn) [Example 2.124] | 72 nM
53 | CCOc1nccc(N2CC[C@@H](Oc3ccc([C@H](C)NC(C)=O)cc3)C2)c1F [Example 9.86] | 187 nM
54 | CC(=O)N[C@@H](C)c1ccc(O[C@@H]2CCN(c3cccc(N(C)C4CCC4)n3)C2)cc1 [Example 1.134] | 102 nM
55 | CCOc1cc(N2CC[C@@H](Oc3ccc([C@H](C)NC(=O)C4CC4)cc3)C2)ccn1 [Example 9.38] | 510 nM
56 | CCCNc1nccc(N2CCC(Oc3ccc([C@H](C)NC(=O)NCC)cc3)C2)c1F (stereo partly drawn) [Example 5.7] | 117 nM
57 | CC(=O)N[C@@H](C)c1ccc(O[C@@H]2CCN(c3ccc(OCCCF)cn3)C2)cc1 [Example 11.3] | 131 nM
58 | CC(=O)N[C@@H](C)c1ccc(OC2CCN(c3cc(OCC4CC4)ncc3F)C2)cc1 (stereo partly drawn) [Example 1.73] | 59 nM
59 | CCOc1cc(N2CCC(Oc3ccc([C@H](C)NC(C)=O)cc3)C2)ccn1 (stereo partly drawn) [Example 1.12] | 265 nM
60 | CCN(C)c1cccc(N2CC[C@@H](Oc3ccc([C@H](C)NC(C)=O)cc3)C2)n1 [Example 10.30] | 154 nM
61 | CC(=O)N[C@@H](C)c1ccc(O[C@@H]2CCN(c3cc(OCC(C)C)ncc3C#N)C2)cc1 [Example 9.56] | 900 nM
62 | Cc1nocc1C(=O)N[C@@H](C)c1ccc(OC2CCN(c3ccnc(OCC(F)F)c3)C2)cc1 (stereo partly drawn) [Example 2.95] | 49 nM
63 | CC(=O)Nc1cc(C(=O)N[C@@H](C)c2ccc(OC3CCN(c4ccnc(OC(C)C)c4)C3)cc2)ccn1 (stereo partly drawn) [Example 2.26] | 466 nM
